The results in this text go back to ChEMBL document CHEMBL1127891, “Benzopyran potassium channel activators related to cromakalim - heterocyclic amide replacements at position 4” (1994).

What all share (assay type): functional
Assay [1] has as its system Rattus norvegicus. Kind of assay: Tested for antihypertensive activity expressed as max fall in BP in spontaneously hypertensive rats (SHR), at the dose of 0.1 mg/kg.
For assay [2], the system named is Rattus norvegicus. Nature of the assay: Tested for antihypertensive activity expressed as max fall in BP in spontaneously hypertensive rats (SHR), at the dose of 0.3 mg/kg.
For assay [3], the system named is Rattus norvegicus. Kind of assay: Tested for antihypertensive activity expressed as max fall in BP in spontaneously hypertensive rats (SHR), at the dose of 1 mg/kg.
Assay [4] relates to Rattus norvegicus. Nature of the assay: Tested for antihypertensive activity expressed as max fall in BP in spontaneously hypertensive rats (SHR), at the dose of 10.0 mg/kg.
Assay [5] deals with Rattus norvegicus. Nature of the assay: Tested for antihypertensive activity expressed as max fall in BP in spontaneously hypertensive rats (SHR), at the dose of 3.0 mg/kg.

As to `Cn1nc(N)nc1N[C@@H]1c2cc(C#N)ccc2OC(C)(C)[C@H]1O`, the “Max fall in blood pressure” value came out at 30 with Rattus norvegicus [1] and 56 in the assay on Rattus norvegicus [2].
With `Cn1ncnc1N[C@@H]1c2cc(C#N)ccc2OC(C)(C)[C@H]1O`, the “Max fall in blood pressure” value in the assay with Rattus norvegicus [3] is 35; with Rattus norvegicus [2], 22.
As to `Cn1nc(N[C@@H]2c3cc(C#N)ccc3OC(C)(C)[C@H]2O)nc1N`, the “Max fall in blood pressure” value with Rattus norvegicus [4] amounted to 33.
Regarding `Cc1nc(N[C@@H]2c3cc(C#N)ccc3OC(C)(C)[C@H]2O)n(C)n1`, the entries for the “Max fall in blood pressure” value with Rattus norvegicus [3] and in the assay on Rattus norvegicus [5] were 22 and 37, respectively.
With `CC1(C)Oc2ccc(C#N)cc2[C@@H](Nc2n[s+]([O-])nc2N)[C@@H]1O` (some centres not stated), in the assay with Rattus norvegicus [5], the “Max fall in blood pressure” value amounted to 20.
Same read-out and setting: under `CC1(C)Oc2ccc(C#N)cc2[C@@H](Nc2n[nH]c(N)n2)[C@@H]1O` stands 19.
Take `C/N=C(\NC#N)N[C@@H]1c2cc(C#N)ccc2OC(C)(C)[C@H]1O`: the “Max fall in blood pressure” value with Rattus norvegicus [3] was found to be 41; with Rattus norvegicus [2], 16.
Regarding `CC1(C)Oc2ccc(C#N)cc2[C@@H](Nc2nc(N)no2)[C@@H]1O`, the “Max fall in blood pressure” value turned out to be 16 with Rattus norvegicus [3] and 32 with Rattus norvegicus [5].
In the case of `Cc1noc(N[C@@H]2c3cc(C#N)ccc3OC(C)(C)[C@H]2O)n1`, the “Max fall in blood pressure” value with Rattus norvegicus [5] came to 31.
For the molecule `CC1(C)Oc2ccc(C#N)cc2[C@@H](N2CCCC2=O)[C@@H]1O` [CROMAKALIM], the “Max fall in blood pressure” value is 47 in the assay on Rattus norvegicus [3], 13 in the assay with Rattus norvegicus [1] and 39 with Rattus norvegicus [2].
